Measurements from patent US11413278B2, “Compounds and methods for promoting stress resistance” (priority 2015, dated 2022).
Entries after “also recorded” stand apart in the source; their conditions may differ. Like-named read-outs stand apart in the source and are kept apart here.

Columns and labels:
FOXO3 = experiment: qPCR analysis of FOXO3-regulated genes; assay type: cell-based, human; conditions: for fold induction at 10 µM: Homo sapiens; for K = Sestrin induction: score; for Induction of at least two of five FOXO3-regulated genes (SOD2, GADD45A, CAT, DDB1, TXNIP): WI-38
Method in brief: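 WI-38 cells treated with compound at 10 μM for 24 h, followed by Cells-to-Ct RT-qPCR of FOXO3 target genes normalised to B2M, PPIA and GAPDH. FOXO3 or NRF2 dependence tested by prior 10 nM siRNA knockdown (36 h transfection, compound added ~24 h after replating).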

C. elegans = assay type: in vivo, Caenorhabditis elegans
Method in brief: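 Worms treated in liquid with compounds in 96-well plates (4 wells each, FUdR to block progeny, 0.2% DMSO controls); H2O2 at 500 μM final added on day 4 of adulthood and viability scored daily.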

human PARP1 = target: T1, human PARP1 (Homo sapiens, UniProt P09874); experiment: PARP inhibitor assay (HT Fluorescent Homogeneous PARP Inhibition Assay Kit); assay type: biochemical; conditions: for L = PARP inhibition: score
T1 construct: purchased Trevigen
Method in brief: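 Human PARP1 with NAD and activated DNA, compounds at 10 μM final, 30 min at room temperature in dark. Resazurin/diaphorase cycling mix then added for 1 hr in dark before stop buffer; fluorescent homogeneous kit read-out.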

[1] = WI-38 cells, 10 μM, 24 hrs, n=4, qPCR normalized by B2M, read-out: DDB1 Normalized fold change
[2] = WI-38 cells, 10 μM, 24 hrs, n=4, qPCR normalized by B2M, read-out: GADD45A Normalized fold change
[3] = WI-38 cells, 10 μM, 24 hrs, n=4, qPCR normalized by B2M, read-out: SESN1 Normalized fold change
[4] = qPCR, WI-38 cells, 10 μM, n=4, 24 hrs, normalized by B2M, read-out: CAT Normalized fold change
[5] = qPCR, WI-38 cells, 10 μM, n=4, 24 hrs, normalized by B2M, read-out: SOD2 Normalized fold change
[6] = qPCR, WI-38 cells, 10 μM, n=4, 24 hrs, normalized by B2M, read-out: TXNIP Normalized fold change
[7] = 10 μM, 24 hrs, WI-38 cells, qPCR, normalized to B2M, n = 4
[8] = WI-38 cells, 10 μM, 24 hrs, n=4, qPCR normalized by B2M
[9] = fold change, qPCR, WI-38 cells, 10 μM, 24 hrs
[10] = qPCR, WI-38 cells, 10 μM, n=4, 24 hrs, normalized by B2M
[11] = 24 h, Assay 10(m), at 10 uM, qPCR, read-out: Induction of FOXO3-regulated genes: CAT normalized fold-change
[12] = 24 h, Assay 10(m), at 10 uM, qPCR, read-out: Induction of FOXO3-regulated genes: DDB1 normalized fold-change
[13] = 24 h, Assay 10(m), at 10 uM, qPCR, read-out: Induction of FOXO3-regulated genes: GADD45A normalized fold-change
[14] = 10 μM, 24 hrs, WI-38 cells, qPCR, normalized to B2M, n = 4, read-out: CAT expression, normalized fold change (FOXO3-regulated gene)
[15] = 10 μM, 24 hrs, WI-38 cells, qPCR, normalized to B2M, n = 4, read-out: GADD45A expression, normalized fold change (FOXO3-regulated gene)
[16] = fold change, qPCR, WI-38 cells, 10 μM, 24 hrs, read-out: Summary of effects on FOXO3-regulated genes: CAT
[17] = fold change, qPCR, WI-38 cells, 10 μM, 24 hrs, read-out: Summary of effects on FOXO3-regulated genes: GADD45A

T1 sequence (P09874 whole entry): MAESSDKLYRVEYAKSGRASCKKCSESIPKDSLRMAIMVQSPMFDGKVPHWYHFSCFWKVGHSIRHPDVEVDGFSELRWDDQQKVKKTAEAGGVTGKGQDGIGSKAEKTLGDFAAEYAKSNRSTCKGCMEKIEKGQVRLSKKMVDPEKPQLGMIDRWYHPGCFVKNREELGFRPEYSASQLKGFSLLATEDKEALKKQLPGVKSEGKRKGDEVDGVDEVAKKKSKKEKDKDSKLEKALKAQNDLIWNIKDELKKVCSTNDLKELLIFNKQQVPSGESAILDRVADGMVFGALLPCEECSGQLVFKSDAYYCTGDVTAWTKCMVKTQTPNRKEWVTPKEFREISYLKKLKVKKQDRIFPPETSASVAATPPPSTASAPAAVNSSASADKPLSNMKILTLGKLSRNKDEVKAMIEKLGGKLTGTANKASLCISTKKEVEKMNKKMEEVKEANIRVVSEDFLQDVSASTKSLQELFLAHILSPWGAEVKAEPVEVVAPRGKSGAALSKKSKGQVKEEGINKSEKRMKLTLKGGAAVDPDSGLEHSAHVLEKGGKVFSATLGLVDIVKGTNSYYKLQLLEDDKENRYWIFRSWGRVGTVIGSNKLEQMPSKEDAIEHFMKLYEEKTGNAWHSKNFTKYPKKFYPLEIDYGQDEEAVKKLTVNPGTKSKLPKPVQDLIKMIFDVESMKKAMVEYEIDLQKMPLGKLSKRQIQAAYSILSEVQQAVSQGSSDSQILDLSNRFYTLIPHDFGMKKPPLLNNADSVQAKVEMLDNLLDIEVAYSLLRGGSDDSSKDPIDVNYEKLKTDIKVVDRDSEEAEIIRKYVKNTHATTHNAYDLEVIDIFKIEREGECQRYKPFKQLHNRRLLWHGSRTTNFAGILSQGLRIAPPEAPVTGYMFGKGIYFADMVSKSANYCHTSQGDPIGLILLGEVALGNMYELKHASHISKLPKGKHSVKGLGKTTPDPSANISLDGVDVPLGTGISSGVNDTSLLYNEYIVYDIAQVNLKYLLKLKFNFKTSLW

O=C(Nc1nc(C23CC4CC(CC(C4)C2)C3)cs1)C(c1ccccc1)c1ccccc1 [O10]
E = Potential FOXO3 Activation (FOXO3; 2-point score): 0
fold induction at 10 µM (FOXO3; [1]): 0.906
fold induction at 10 µM (FOXO3; [2]): 1.19
fold induction at 10 µM (FOXO3; [3]): 0.983
fold induction at 10 µM (FOXO3; [4]): 0.892
fold induction at 10 µM (FOXO3; [5]): 0.912
fold induction at 10 µM (FOXO3; [6]): 0.731
K = Sestrin induction (FOXO3): 0
E = Potential FOXO3 Activation (FOXO3; summary score): 0
L = H2O2-resistance in worms (C. elegans; in vivo): 0
N = H2O2-resistance in woms (C. elegans; in vivo): 0
L = PARP inhibition (human PARP1): 0

COc1cc2c(no[n+]2[O-])n2nnnc12 [O11]
Induction of at least two of five FOXO3-regulated genes (SOD2, GADD45A, CAT, DDB1, TXNIP) (FOXO3; 10 μM, 24 hrs): significant induction; also recorded: significant, induction; also recorded: induce FOXO3-regulated genes
CAT expression, normalized fold change (FOXO3-regulated gene) (FOXO3; [7]): CAT 1.41, fold
DDB1 expression, normalized fold change (FOXO3-regulated gene) (FOXO3; [7]): DDB1 1.31, fold
SESN1 expression, normalized fold change (FOXO3-regulated gene) (FOXO3; [7]): SESN1 1.77, fold
TXNIP expression, normalized fold change (FOXO3-regulated gene) (FOXO3; [7]): TXNIP 1.35, fold
E = Potential FOXO3 Activation (FOXO3; 2-point score): 0
Induction of FOXO3-regulated genes: CAT normalized fold-change (FOXO3; Assay 10(m), at 10 uM, qPCR): CAT 1.41, fold-change
Induction of FOXO3-regulated genes: DDB1 normalized fold-change (FOXO3; Assay 10(m), at 10 uM, qPCR): DDB1 1.31, fold-change
Induction of FOXO3-regulated genes: SESN1 normalized fold-change (FOXO3; Assay 10(m), at 10 uM, qPCR): SESN1 1.77, fold-change
Induction of FOXO3-regulated genes: TXNIP normalized fold-change (FOXO3; Assay 10(m), at 10 uM, qPCR): TXNIP 1.35, fold-change
DDB1 Normalized fold change (FOXO3; [8]): 1.308 fold change
GADD45A Normalized fold change (FOXO3; [8]): 1.431 fold change
SESN1 Normalized fold change (FOXO3; [8]): 1.773 fold change
Summary of effects on FOXO3-regulated genes: CAT (FOXO3; [9]): CAT 1.41,
Summary of effects on FOXO3-regulated genes: DDB1 (FOXO3; [9]): DDB1 1.31,
Summary of effects on FOXO3-regulated genes: SESN1 (FOXO3; [9]): SESN1 1.77,
Summary of effects on FOXO3-regulated genes: TXNIP (FOXO3; [9]): TXNIP 1.35,
CAT Normalized fold change (FOXO3; [10]): 1.410
SOD2 Normalized fold change (FOXO3; [10]): 1.143
TXNIP Normalized fold change (FOXO3; [10]): 1.346
K = Sestrin induction (FOXO3): 1
E = Potential FOXO3 Activation (FOXO3; summary score): 0
H2O2-resistance assay, 1st experiment (C. elegans; 60 μM, in liquid, wild type, with FuDR): YES;
N = H2O2-resistance in woms (C. elegans; score): 0
L = H2O2-resistance in worms (C. elegans; summary score): 0
L = PARP inhibition (human PARP1): 0

CCCC(=O)Nc1ccc(-c2cn3cccc(C)c3n2)cc1 [O12]
Induction of at least two of five FOXO3-regulated genes (SOD2, GADD45A, CAT, DDB1, TXNIP) (FOXO3; 10 μM, 24 hrs): significant induction
SOD2 expression, normalized fold change (FOXO3-regulated gene) (FOXO3; [7]): SOD2 1.52, fold
E = Potential FOXO3 Activation (FOXO3; 2-point score): 2
fold induction at 10 µM (FOXO3; [11]): 0.82
fold induction at 10 µM (FOXO3; [12]): 0.86
fold induction at 10 µM (FOXO3; [13]): 1.44
fold induction at 10 µM (FOXO3; 24 h, Assay 10(m), at 10 uM, qPCR, read-out: Induction of FOXO3-regulated genes: SOD2 normalized fold-change): 1.35
fold induction at 10 µM (FOXO3; [14]): 0.8
fold induction at 10 µM (FOXO3; [15]): 1.69
fold induction at 10 µM (FOXO3; [1]): 1.02
fold induction at 10 µM (FOXO3; [2]): 1.69
fold induction at 10 µM (FOXO3; [3]): 1.05
fold induction at 10 µM (FOXO3; [16]): 0.8
fold induction at 10 µM (FOXO3; [17]): 1.69
fold induction at 10 µM (FOXO3; [4]): 0.802
fold induction at 10 µM (FOXO3; [5]): 1.52
fold induction at 10 µM (FOXO3; [6]): 0.909
Summary of effects on FOXO3-regulated genes: SOD2 (FOXO3; [9]): SOD2 1.52,
K = Sestrin induction (FOXO3): 0
E = Potential FOXO3 Activation (FOXO3; summary score): 0
H2O2-resistance assay, 1st experiment (C. elegans; in vivo): YES;
L = H2O2-resistance in worms (C. elegans; in vivo): 0
N = H2O2-resistance in woms (C. elegans; in vivo): 0
Inhibition of PARP1 (human PARP1; 10 μM, in vitro): inhibitors of PARP1
L = PARP inhibition (human PARP1): 0

O=C(c1ccc([N+](=O)[O-])o1)N1CCc2ccccc21 [O13]
Induction of at least two of five FOXO3-regulated genes (SOD2, GADD45A, CAT, DDB1, TXNIP) (FOXO3; 10 μM, 24 hrs): significant induction; also recorded: significant, induction
E = Potential FOXO3 Activation (FOXO3; 2-point score): 0
fold induction at 10 µM (FOXO3; [11]): 1.33
fold induction at 10 µM (FOXO3; [12]): 1.27
fold induction at 10 µM (FOXO3; [13]): 1.2
fold induction at 10 µM (FOXO3; [14]): 1.33
fold induction at 10 µM (FOXO3; 10 μM, 24 hrs, WI-38 cells, qPCR, normalized to B2M, n = 4, read-out: DDB1 expression, normalized fold change (FOXO3-regulated gene)): 1.27
fold induction at 10 µM (FOXO3; [15]): 1.2
fold induction at 10 µM (FOXO3; [1]): 1.27
fold induction at 10 µM (FOXO3; [2]): 1.2
fold induction at 10 µM (FOXO3; [3]): 1.23
fold induction at 10 µM (FOXO3; [16]): 1.33
fold induction at 10 µM (FOXO3; fold change, qPCR, WI-38 cells, 10 μM, 24 hrs, read-out: Summary of effects on FOXO3-regulated genes: DDB1): 1.27
fold induction at 10 µM (FOXO3; [17]): 1.2
fold induction at 10 µM (FOXO3; [4]): 1.32
fold induction at 10 µM (FOXO3; [5]): 1.09
fold induction at 10 µM (FOXO3; [6]): 0.907
K = Sestrin induction (FOXO3): 0
E = Potential FOXO3 Activation (FOXO3; summary score): 0
H2O2-resistance assay, 1st experiment (C. elegans; in vivo): YES;
L = H2O2-resistance in worms (C. elegans; in vivo): 0
N = H2O2-resistance in woms (C. elegans; in vivo): 0
L = PARP inhibition (human PARP1): 0
